How the values were obtained:
Type in all cases: physicochemical
[1] = in vitro dissolution test using a syringe method (Drug 2); details: for AUC / Drug 2 Concentration: PBS pH 6.5, 2 wt % NaTC/POPC
Experimental: An 8.0 mg sample of the adsorbate was added to 40 mL phosphate buffered saline (PBS) at pH 6.5 and 290 mOsm/kg, containing 2 wt % sodium taurocholic acid and 1-palmitoyl-2-oleyl-sn-glycero-3-phosphocholine (NaTC/POPC, with a 4/1 weight ratio). The concentration of drug would have been 50 μg/mL, if all of the drug had dissolved. The test solution was stirred at room temperature in a syringe equipped with a Gelman Acrodisc 13 CR 0.45 μm PTFE filter. At each sample time, about 2 mL of the test solution was pushed through the filter and analyzed using UV at a wavelength of 256 nm to determine the concentration of torcetrapib in solution. […] Crystalline torcetrapib alone is shown as a comparison.
Crystalline Drug 2 alone is shown as a comparison. In all cases, a sufficient amount of sample was added so that the concentration of drug would have been 50 μg/mL, if all of the drug had dissolved.

[2] = in vitro dissolution test using a syringe method (torcetrapib); details: for Torcetrapib Concentration / AUC: PBS pH 6.5, 2 wt % NaTC/POPC
Experimental: An 8.0 mg sample of the adsorbate was added to 40 mL phosphate buffered saline (PBS) at pH 6.5 and 290 mOsm/kg, containing 2 wt % sodium taurocholic acid and 1-palmitoyl-2-oleyl-sn-glycero-3-phosphocholine (NaTC/POPC, with a 4/1 weight ratio). The concentration of drug would have been 50 μg/mL, if all of the drug had dissolved. The test solution was stirred at room temperature in a syringe equipped with a Gelman Acrodisc 13 CR 0.45 μm PTFE filter. At each sample time, about 2 mL of the test solution was pushed through the filter and analyzed using UV at a wavelength of 256 nm to determine the concentration of torcetrapib in solution. Samples were collected at 1, 2, 3, 5, 10, 15, 20, 30, 45, 60, and 90 minutes. Crystalline torcetrapib alone is shown as a comparison.
The dissolution rate constant was obtained by performing a least squares fit of the experimental data using the following equation: […]
In this test, 7.855 mg of the Solid Amorphous Adsorbate 2 was added to 40 mL phosphate buffered saline (PBS) at pH 6.5 and 290 mOsm/kg, containing 2 wt % NaTC/POPC (the concentration of drug would have been 49 μg/mL, if all of the drug had dissolved).

[3] = aqueous solubility of torcetrapib

In the case of `CC[C@@H]1C[C@H](N(Cc2cc(C(F)(F)F)cc(C(F)(F)F)c2)C(=O)OC)c2cc(C(F)(F)F)ccc2N1C(=O)OC(C)C` [Drug 2, [2R,4S]4-[(3,5-bis-trifluoromethyl-benzyl)-methoxycarbonyl-amino]-2-ethyl-6-trifluoromethyl-3,4-dihydro-2H-quinoline-1-carboxylic acid isopropyl ester], the “Dissolution Rate Constant, k” value ([1]; Drug 2) is reported as 0.005 min⁻¹, the AUC90 ([1]; Drug 2, area under the aqueous concentration versus time curve after 90 minutes) is reported as 383 µg·min/mL and the AUC ([1]; Drug 2, time 0 min) is reported as 0 µg·min/mL. For the same compound, the AUC ([1]; Drug 2, time 0.5 min) was 0 µg·min/mL, the AUC ([1]; Drug 2, time 5 min) was 2.6 µg·min/mL and the AUC ([1]; Drug 2, time 15 min) was 17 µg·min/mL. For the same compound, the AUC ([1]; Drug 2, time 45 min) was 111 µg·min/mL, the AUC ([1]; Drug 2, time 90 min) was 383 µg·min/mL and the MDC90 ([1]; maximum concentration of Drug 2 in solution during the first 90 minutes) was 7.6 µg/mL. The “Drug 2 Concentration” value ([1]; time 0 min) was 0 µg/mL, the “Drug 2 Concentration” value ([1]; time 0.5 min) was 0.1 µg/mL and the “Drug 2 Concentration” value ([1]; time 5 min) was 1.0 µg/mL. For the same compound, the “Drug 2 Concentration” value ([1]; time 15 min) was 1.8 µg/mL, the “Drug 2 Concentration” value ([1]; time 45 min) was 4.5 µg/mL and the “Drug 2 Concentration” value ([1]; time 90 min) was 7.6 µg/mL.
In the case of `CCOC(=O)N1c2ccc(C(F)(F)F)cc2[C@@H](N(Cc2cc(C(F)(F)F)cc(C(F)(F)F)c2)C(=O)OC)C[C@H]1CC` [torcetrapib, [2R,4S]-4-[(3,5-bis-trifluoromethyl-benzyl)-methoxycarbonyl-amino]-2-ethyl-6-trifluoromethyl-3,4-dihydro-2H-quinoline-1-carboxylic acid ethyl ester], the “MDCmax,90” value ([2]; maximum concentration of torcetrapib in solution during the first 90 minutes) is reported as under 0.5 µg/mL, the “Torcetrapib Concentration” value ([2]; time 0 min) is reported as under 0.5 µg/mL and the “Torcetrapib Concentration” value ([2]; time 1 min) is reported as under 0.5 µg/mL. The “Torcetrapib Concentration” value ([2]; time 2 min) was under 0.5 µg/mL, the “Torcetrapib Concentration” value ([2]; time 3 min) was under 0.5 µg/mL and the “Torcetrapib Concentration” value ([2]; time 5 min) was under 0.5 µg/mL. For the same compound, the “Torcetrapib Concentration” value ([2]; time 10 min) was under 0.5 µg/mL, the “Torcetrapib Concentration” value ([2]; time 15 min) was under 0.5 µg/mL and the “Torcetrapib Concentration” value ([2]; time 20 min) was under 0.5 µg/mL. The “Torcetrapib Concentration” value ([2]; time 30 min) was under 0.5 µg/mL, the “Torcetrapib Concentration” value ([2]; time 45 min) was under 0.5 µg/mL and the “Torcetrapib Concentration” value ([2]; time 60 min) was under 0.5 µg/mL. The “Torcetrapib Concentration” value ([2]; time 90 min) was under 0.5 µg/mL, the AUC90 ([2]; torcetrapib, area under the aqueous concentration versus time curve after 90 minutes) was under 45 min-μg/mL and the “Dissolution Rate Constant, k” value ([2]; torcetrapib, least squares fit of [D]t=[D]o(1−e^−kt)) was under 0.0005 min⁻¹. The AUC ([2]; torcetrapib, time 0 min) was 0 µg·min/mL, the AUC ([2]; torcetrapib, time 1 min) was 0 µg·min/mL and the AUC ([2]; torcetrapib, time 2 min) was under 1 µg·min/mL. It also gave an AUC ([2]; torcetrapib, time 3 min) of under 1 µg·min/mL, an AUC ([2]; torcetrapib, time 5 min) of under 2 µg·min/mL and an AUC ([2]; torcetrapib, time 10 min) of under 5 µg·min/mL. It also gave an AUC ([2]; torcetrapib, time 15 min) of under 7 µg·min/mL, an AUC ([2]; torcetrapib, time 20 min) of under 10 µg·min/mL and an AUC ([2]; torcetrapib, time 30 min) of under 15 µg·min/mL. For the same compound, the AUC ([2]; torcetrapib, time 45 min) was under 22 µg·min/mL, the AUC ([2]; torcetrapib, time 60 min) was under 30 µg·min/mL and the AUC ([2]; torcetrapib, time 90 min) was under 45 µg·min/mL. For the same compound, the solubility [3] was under 0.04 µg/mL.

From patent US20040132771A1, “Compositions of choleseteryl ester transfer protein inhibitors and HMG-CoA reductase inhibitors” (Pfizer Inc, priority 2002, published 2004)
